This data set is described as follows: Acid dissociation constant (pKa) of the acid. The text has this: In this specification, the acid dissociation constant (pKa) of the acid is an index of acidity, and a common logarithm is employed as a reciprocal of the dissociation constant (Ka) of acid. That is, the acid dissociation constant (pKa) of the acid is obtained by measuring the dissociation constant Ka=[H3O^+] [B^−]/[BH] under a dilute aqueous solution condition and using a formula: pKa=−log Ka Incidentally, in the above formula, BH represents an organic acid and B^− represents a conjugate base of an organic acid. The measurement method of pKa is as follows: a hydrogen ion concentration is measured using a pH meter and pKa can be calculated from the concentration of the substance and the hydrogen ion concentration. Incidentally, in the case of polybasic acid, the pKa is a value calculated for the first Ka (pKa1).

A word on the pKa: it is the negative logarithm of the acid dissociation constant. Lower therefore signals a group that gives up its proton readily. As for `CC(C)(O)C(=O)O` [2-Hydroxyisobutyric acid], under “dilute aqueous solution”, the pKa came to 4.37.
As for `O=C(O)C(O)CO` (centres unmarked) [Glyceric acid], under “dilute aqueous solution”, the pKa stood at 3.4.
With `CC(C)CC(O)C(=O)O` (centres unmarked) [Leucine acid], the pKa came out at 3.9.
Turning to `O=C(O)CC(O)C(=O)O` (centres unmarked) [Malic acid], the pKa is 3.4.
On to `CCCCC(=O)O` [Valeric acid], for which, where the note is “dilute aqueous solution”, the pKa turned out to be 4.6.
